Source: US11051538B2, “Plated flavor powders” (FIRMENICH SA, priority 2013, dated 2021)

Experiment: Transfer of volatiles via headspace from MCT flavor composition to PG plated onto MCC, cyclohexane extraction, GC/MS
Format: physicochemical
Conditions: for (conc in PG/conc in initial oil)*100: affinity for propylene glycol versus MCT oil or air; for (conc in PG/conc in initial oil)*100 / Avg conc in the PG: 6 days room temperature; for Avg conc in the PG / Avg conc in powder: powder 20% PG on 80% MCC; for Avg conc in powder: 6 days room temperature in closed container with MCT flavor composition, average of 2 extractions
Procedure: A flavor composition formulated based on a medium chain triglyceride oil (MCT, solvent A) was filled into a open beaker, and was then placed inside a closed glass container containing a powder consisting of 20% propylene glycol (PG, solvent B) plated onto 80% of microcrystalline cellulose (MCC; purchased from Sigma Aldrich). Then the system was stored in the lab at room temperature. After 6 days, a small sample of powder was removed, an extraction experiment was performed and the extract was analyzed by GC/MS. Extraction solvent: cyclohexane Internal standard: Methyloctanoate (a 6.67 mg/ml solution was prepared by dissolution in cyclohexane) 2 extractions were performed to check the reproducibility.

| Compound | (conc in PG/conc in initial oil)*100 | Avg conc in the PG | Avg conc in powder |
| --- | --- | --- | --- |
| CCc1ncc(C)nc1C [2-ethyl-3,5-dimethylpirazine] | 12.7 | 25.4 ppm | 6 ppm |
| CCc1nccnc1C [2-ethyl-3-methylpyrazine] | 39.9 | 799.0 ppm | 200 ppm |
| CCC(C)C=O (stereo not drawn) [2-methyl butanal] | 6.7 | 1615.4 ppm | 404 ppm |
| CSCCC=O [3-(methylthio)propanal] | 2.8 | 113.5 ppm | 28 ppm |
| CC(=O)C(C)O (stereo not drawn) [acetylmethylcarbinol] | 3.9 | 156.9 ppm | 39 ppm |
| CC(C)CC=O [isovalerianic aldehyde] | 9.1 | 1091.5 ppm | 273 ppm |
| Decenal | 0.3 | 37.8 ppm | 9 ppm |
| Dienal C10 | 1.9 | 467.4 ppm | 117 ppm |
| Dienal C11 | 0.5 | 40.4 ppm | 10 ppm |
